From publication PMC6117091, “The C. difficile clnRAB operon initiates adaptations to the host environment in response to LL-37” (PLoS Pathogens, 2018)

Tested on: gene expression in C. difficile 630Δerm
Assay: RNA-seq, genes differentially expressed in LL-37
Conditions: 2 µg/ml LL-37, BHIS

CC[C@H](C)[C@H](NC(=O)[C@H](CCCCN)NC(=O)[C@H](CCC(=O)O)NC(=O)[C@H](CCCCN)NC(=O)[C@H](CO)NC(=O)[C@H](CCCCN)NC(=O)[C@H](CCCNC(=N)N)NC(=O)[C@H](Cc1ccccc1)NC(=O)[C@H](Cc1ccccc1)NC(=O)[C@H](CC(=O)O)NC(=O)CNC(=O)[C@H](CC(C)C)NC(=O)[C@@H](N)CC(C)C)C(=O)NCC(=O)N[C@@H](CCCCN)C(=O)N[C@@H](CCC(=O)O)C(=O)N[C@@H](Cc1ccccc1)C(=O)N[C@@H](CCCCN)C(=O)N[C@@H](CCCNC(=N)N)C(=O)N[C@H](C(=O)N[C@H](C(=O)N[C@@H](CCC(N)=O)C(=O)N[C@@H](CCCNC(=N)N)C(=O)N[C@H](C(=O)N[C@@H](CCCCN)C(=O)N[C@@H](CC(=O)O)C(=O)N[C@@H](Cc1ccccc1)C(=O)N[C@@H](CC(C)C)C(=O)N[C@@H](CCCNC(=N)N)C(=O)N[C@@H](CC(N)=O)C(=O)N[C@@H](CC(C)C)C(=O)N[C@H](C(=O)N1CCC[C@H]1C(=O)N[C@@H](CCCNC(=N)N)C(=O)N[C@H](C(=O)N[C@@H](CCC(=O)O)C(=O)N[C@@H](CO)C(=O)O)[C@@H](C)O)C(C)C)[C@@H](C)CC)C(C)C)[C@@H](C)CC [LL-37]
23S_rRNA fold change in LL-37: 0.27 | CD630_00470 (ispD) fold change in LL-37: 0.48 | CD630_01060 (cwlD) fold change in LL-37: 0.43 | CD630_01250 fold change in LL-37: 0.44 | CD630_01631 fold change in LL-37: 0.22 | CD630_01930 (groS) fold change in LL-37: 0.46 | CD630_02910 fold change in LL-37: 3.25 | CD630_03140 fold change in LL-37: 0.41 | CD630_03240 (cbiM) fold change in LL-37: 0.42 | CD630_03250 (cbiN) fold change in LL-37: 0.50 | CD630_03260 (cbiQ1) fold change in LL-37: 0.41 | CD630_03270 (cbiO) fold change in LL-37: 0.40 | CD630_03580 fold change in LL-37: 3.38 | CD630_03830 fold change in LL-37: 2.58 | CD630_03901 fold change in LL-37: 0.43 | CD630_04090 fold change in LL-37: 0.44 | CD630_04440 (ortB) fold change in LL-37: 2.09 | CD630_04670 fold change in LL-37: 3.43 | CD630_04780 (spaF) fold change in LL-37: 3.43 | CD630_04800 (spaG) fold change in LL-37: 2.29 | CD630_04890 fold change in LL-37: 2.26 | CD630_04900 fold change in LL-37: 4.13 | CD630_04960 fold change in LL-37: 4.13 | CD630_04970 fold change in LL-37: 3.86 | CD630_04980 fold change in LL-37: 4.13 | CD630_05000 fold change in LL-37: 3.61 | CD630_05060 fold change in LL-37: 3.54 | CD630_05100 fold change in LL-37: 3.07 | CD630_05101 fold change in LL-37: 3.31 | CD630_05102 fold change in LL-37: 3.35 | CD630_05103 fold change in LL-37: 3.27 | CD630_05490 fold change in LL-37: 4.74 | CD630_05500 fold change in LL-37: 5.52 | CD630_05670 fold change in LL-37: 0.44 | CD630_05770 fold change in LL-37: 2.96 | CD630_05780 fold change in LL-37: 0.47 | CD630_05790 fold change in LL-37: 0.40 | CD630_06140 fold change in LL-37: 0.43 | CD630_06240 fold change in LL-37: 0.45 | CD630_07290 (gcvH) fold change in LL-37: 2.23 | CD630_08450 fold change in LL-37: 0.40 | CD630_08530 (oppB) fold change in LL-37: 3.02 | CD630_08570 (oppF) fold change in LL-37: 2.88 | CD630_09080 fold change in LL-37: 0.23 | CD630_09170 fold change in LL-37: 0.45 | CD630_09260 fold change in LL-37: 2.36 | CD630_09340 fold change in LL-37: 0.39 | CD630_09360 fold change in LL-37: 0.28 | CD630_09950 (serA) fold change in LL-37: 0.23 | CD630_09960 fold change in LL-37: 0.24 | CD630_10280 fold change in LL-37: 0.48 | CD630_10540 (bcd2) fold change in LL-37: 2.94 | CD630_10550 (etfB3) fold change in LL-37: 3.07 | CD630_10560 (etfA3) fold change in LL-37: 3.22 | CD630_10570 (crt2) fold change in LL-37: 2.97 | CD630_10580 (hbd) fold change in LL-37: 3.51 | CD630_10590 (thlA1) fold change in LL-37: 3.56 | CD630_10850 fold change in LL-37: 2.17 | CD630_10860 fold change in LL-37: 2.54 | CD630_10980 fold change in LL-37: 2.17 | CD630_11261 fold change in LL-37: 0.42 | CD630_11540 fold change in LL-37: 0.40 | CD630_11710 (etfB4) fold change in LL-37: 0.45 | CD630_12382 fold change in LL-37: 5.60 | CD630_12400 (vanZ) fold change in LL-37: 28.43 | CD630_12700 fold change in LL-37: 0.45 | CD630_13450 fold change in LL-37: 0.46 | CD630_13460 fold change in LL-37: 0.50 | CD630_13610 fold change in LL-37: 0.37 | CD630_13640 fold change in LL-37: 0.40 | CD630_13720 fold change in LL-37: 0.48 | CD630_13900 fold change in LL-37: 2.35 | CD630_14240 fold change in LL-37: 2.97 | CD630_14890 (metN) fold change in LL-37: 0.32 | CD630_14900 (met I) fold change in LL-37: 0.32 | CD630_15100 fold change in LL-37: 2.24 | CD630_15120 (panC) fold change in LL-37: 2.15 | CD630_15470 (hisZ) fold change in LL-37: 2.92 | CD630_15490 (hisC) fold change in LL-37: 2.86 | CD630_15500 (hisB) fold change in LL-37: 3.12 | CD630_15510 (hisH) fold change in LL-37: 3.29 | CD630_15520 (hisA) fold change in LL-37: 2.80 | CD630_15540 (hisI) fold change in LL-37: 3.10 | CD630_15560 fold change in LL-37: 2.16 | CD630_15660 (ilvB) fold change in LL-37: 2.01 | CD630_15800 (hom2) fold change in LL-37: 0.49 | CD630_16070 fold change in LL-37: 30.25 | CD630_16090 fold change in LL-37: 30.62 | CD630_16100 fold change in LL-37: 64.45 | CD630_16110 fold change in LL-37: 34.77 | CD630_16120 fold change in LL-37: 3.18 | CD630_16130 (cotA) fold change in LL-37: 2.18 | CD630_16170 (clnR) fold change in LL-37: 186.82 | CD630_16180 (clnA) fold change in LL-37: 202.99 | CD630_16190 (clnB) fold change in LL-37: 192.16 | CD630_16200 fold change in LL-37: 2.15 | CD630_16310 (sodA) fold change in LL-37: 2.59 | CD630_16590 fold change in LL-37: 2.69 | CD630_16632 fold change in LL-37: 0.32 | CD630_16740 fold change in LL-37: 2.47 | CD630_16990 (ribE) fold change in LL-37: 4.23 | CD630_17000 (ribD) fold change in LL-37: 3.65 | CD630_17021 (thiS) fold change in LL-37: 2.41 | CD630_17151 fold change in LL-37: 2.24 | CD630_17170 fold change in LL-37: 2.07 | CD630_17452 fold change in LL-37: 0.34 | CD630_17540 fold change in LL-37: 0.42 | CD630_17880 fold change in LL-37: 2.48 | CD630_18020 fold change in LL-37: 3.05 | CD630_18270 fold change in LL-37: 0.47 | CD630_18470 fold change in LL-37: 0.36 | CD630_18860 fold change in LL-37: 0.41 | CD630_18870 (csfU) fold change in LL-37: 5.34 | CD630_18880 (rsiU) fold change in LL-37: 3.69
